From patent US20230324392A1, “METHODS AND COMPOSITIONS FOR TARGETING CYTOSOLIC DSDNA SIGNALING IN CHROMOSOMALLY UNSTABLE CANCERS” (MEMORIAL SLOAN KETTERING CANCER CENTER, priority 2020, published 2023)
Where “and” joins values, the source holds several entries; their conditions need not be identical. Identical values can stand only once.

Experiments:
B16F10, 4T1, and CT26 = assay: Wound scratch assay for cell migration; type: cell-based, mouse; conditions: C176 at 1 μM; all three metastatic cancer cell lines
Protocol: Wound scratch assay for cell migration: Tumor cell lines B16F10, 4T1, and CT26 were seeded in 6 well plates. When cells reached>90% confluence they were treated with 0.5 μM mitomycin C (M4287, Sigma-Aldrich, St. Louis, MO) for 2 hours, after which a wound was formed using a sterile p200 pipette tip. Thereafter cells were washed once with fresh media, following by treatment with C176 at 1 μM (Probechem, China) or DMSO control in media containing 1% FBS. Images were obtained at 0, 4, 8, and 12 hours using Olympus CKX53 microscope at 4× magnification. The wound surface area was measured and quantified using ImageJ software (MRI Wound Healing tool-dev.mri.cnrs.fr/projects/imagej-macros/wiki/Wound_Healing_Tool).

[1] = Blood chemistry of mice treated with C-176; type: in vivo, mouse; conditions: animals 1, 2
murine STING isoform = target: T1, murine STING isoform (Mus musculus, UniProt Q3TBT3); assay: Immunoblots of phosphorylated p65, RelB and IRF3 in C-176 treated tumor cells; type: cell-based
T1 construct: endogenous in cells
T1 sequence (Q3TBT3 1-378): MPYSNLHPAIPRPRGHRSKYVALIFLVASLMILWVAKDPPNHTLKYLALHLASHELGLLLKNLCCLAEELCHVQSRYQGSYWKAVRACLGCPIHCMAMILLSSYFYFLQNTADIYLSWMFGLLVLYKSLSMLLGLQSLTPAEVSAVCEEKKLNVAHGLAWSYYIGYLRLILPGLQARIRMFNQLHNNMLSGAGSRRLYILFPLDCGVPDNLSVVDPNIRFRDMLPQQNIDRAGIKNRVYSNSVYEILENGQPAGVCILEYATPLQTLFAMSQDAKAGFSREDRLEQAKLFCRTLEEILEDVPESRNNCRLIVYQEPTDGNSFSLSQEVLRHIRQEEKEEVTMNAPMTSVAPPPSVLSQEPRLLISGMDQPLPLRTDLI
Protocol: Immunoblotting: Cells were pelleted and lysed using RIPA buffer. Protein concentration was determined using BCA protein assay and 20-30 μg total protein were loaded in each lane. Proteins were separated by gradient SDS-PAGE and transferred to PVDF or nitrocellulose membranes. See Table 2 for antibody information. Membranes were imaged using the LI-COR Odyssey software. Relative STING protein levels were quantified by measuring band intensities on immunoblots using Image J software, background was subtracted and normalized to loading control. […] Cells were washed with ice-cold PBS and harvested using radio-immunoprecipitation assay (RIPA) lysis buffer containing protease and phosphatase inhibitors (Roche, Basel, Switzerland). Cells were lysed with a probe sonicator for 20 s. Protein quantification was performed using Pierce™ Rapid Gold BCA Protein Assay Kit (Thermo Fisher Scientific, Waltham, MA). Proteins were reduced at 95° C. for 5 mins with NuPAGE™ LDS Sample Buffer (4×) containing NuPAGE™ Sample Reducing Agent (10×). Lysates (40 μg protein/well) were resolved on NuPAGE™ 4-12% Bis-Tris Protein Gels (Invitro-gen) and transferred to polyvinylidene difluoride (PVDF) membranes (Thermo Fisher Scientific, Waltham, MA) using a wet transfer system. […] Images were captured by ChemiDoc Imaging Systems (Bio-Rad, UK) and densitometries were determined by ImageJ.

[2] = Blood counts of mice treated with C-176; type: in vivo, mouse; conditions: for NEUT: reference range 9.86-39.11; for LYMPH: reference range 48.81-83.82
B16F10 cells = conditions: 1 μM C-176, 48 hours
Protocol: RNA was extracted using the RNeasy Mini Kit (Qiagen, Hilden, Germany, 74104). Non-strand-specific paired end sequencing libraries were generated with TruSeq Stranded mRNA (Illumina, San Diego, CA, 20020594) and sequenced on the Illumina NovaSeq platform. Reads were mapped to the mouse reference GRCm38 with the Broad Picard Pipeline (broadinstitute.github.io/picard/). […] Differential analysis was performed by DESeq2 (v1.24.0) as described by Love, M. I., et al., Genome Biol. 15: 550 (2014), the totality of which is incorporated herein by reference. Gene set enrichment analysis was performed on the normalized reads estimated by DESeq2.

[3] = automated differential, animals 1, 2
[4] = complete blood count, animals 1, 2
[5] = manual differential, animals 1, 2

Question: Which migration (B16F10, 4T1, and CT26) does the source give for O=C(Nc1ccc(I)cc1)c1ccc([N+](=O)[O-])o1 [C-176] here?
Answer: significant reductions

Question: What about the “A/G Ratio” value [1] of the same compound?
Answer: 1.3 and 1.4

Question: And the “Anion Gap” value [1]?
Answer: 26 and 32

Question: What about the “BASELINE CORTISOL” value [1] of the same compound?
Answer: 0.811 and 0.662

Question: What about the “BUN/CREA Ratio” value [1] of the same compound?
Answer: 85.0 and 84.2

Question: And the DBIL [1]?
Answer: 0.0 mg/dL

Question: What about the GGT [1] of the same compound?
Answer: 0 U/L

Question: And the IBIL [1]?
Answer: 0.1

Question: And the Na/K [1]?
Answer: 19 and 16

Question: What about the TCO2 [1] of the same compound?
Answer: 24 mEq/L and 18 mEq/L

Question: And the CREA ([1]; reference range 0.2-0.5)?
Answer: 0.20 mg/dL and 0.19 mg/dL

Question: And the TBIL ([1]; reference range 0.2-0.6)?
Answer: 0.1 mg/dL

Question: And the GLOB ([1]; reference range 1.7-2.2)?
Answer: 2.3 g/dL and 1.9 g/dL

Question: And the ALB ([1]; reference range 2.4-4.3)?
Answer: 3.1 g/dL and 2.6 g/dL

Question: What about the TP ([1]; reference range 4.8-7.2) of the same compound?
Answer: 5.4 g/dL and 4.5 g/dL

Question: What about the BUN ([1]; reference range 5.0-28) of the same compound?
Answer: 17 mg/dL and 16 mg/dL

Question: And the K ([1]; reference range 7.3-11.1)?
Answer: 8.1 mEq/L and 9.7 mEq/L

Question: And the Ca ([1]; reference range 9.5-12.5)?
Answer: 10.0 mg/dL and 9.9 mg/dL

Question: What about the ALT ([1]; reference range 27-195) of the same compound?
Answer: 26 U/L and 32 U/L

Question: And the AST ([1]; reference range 54-77)?
Answer: 134 U/L and 69 U/L

Question: And the CHOL ([1]; reference range 55-169)?
Answer: 103 mg/dL and 93 mg/dL

Question: What about the TRIG ([1]; reference range 67-289) of the same compound?
Answer: 82 mg/dL and 80 mg/dL

Question: What about the ALP ([1]; reference range 105-370) of the same compound?
Answer: 61 U/L and 40 U/L

Question: And the CL ([1]; reference range 111-134)?
Answer: 115 mEq/L and 113 mEq/L

Question: What about the Na ([1]; reference range 145-181) of the same compound?
Answer: 157 mEq/L and 153 mEq/L

Question: What about the GLU ([1]; reference range 172-372) of the same compound?
Answer: 205 mg/dL and 210 mg/dL

Question: What about the “phosphorylated pools of the NF-κB transcription factors p65 and RelB” value (murine STING isoform; baseline, B16F10, 4T1, CT26 cells) of the same compound?
Answer: significant reductions

Question: And the IRF3 phosphorylation (murine STING isoform; upon transfection of 20 μg/ml cGAMP)?
Answer: suppressed

Question: And the BASO ([2]; automated differential, animals 1, 2, reference range 0.00-1.84)?
Answer: 0% and 0.1%

Question: What about the “EO#” value ([2]; automated differential, animals 1, 2, reference range 0.01-0.49) of the same compound?
Answer: 0.1 K/uL and 0.16 K/uL

Question: What about the “MONO#” value ([2]; automated differential, animals 1, 2, reference range 0.21-1.37) of the same compound?
Answer: 0.22 K/uL and 0.25 K/uL

Question: What about the “NEUT#” value ([2]; automated differential, animals 1, 2, reference range 0.58-3.83) of the same compound?
Answer: 2.98 K/uL and 4.69 K/uL

Question: And the “LYMPH#” value ([2]; automated differential, animals 1, 2, reference range 2.22-11.56)?
Answer: 3.35 K/uL and 3.14 K/uL

Question: What about the MONO ([2]; automated differential, animals 1, 2, reference range 3.29-14.33) of the same compound?
Answer: 3.3% and 3%

Question: And the “WBC#” value ([2]; automated differential, animals 1, 2, reference range 3.48-14.84)?
Answer: 6.65 K/uL and 8.25 K/uL

Question: What about the NEUT [2, 3] of the same compound?
Answer: 44.8% and 56.9%

Question: What about the LYMPH [2, 3] of the same compound?
Answer: 50.4% and 38.1%

Question: And the EO ([2]; automated differential, animals 1, 2, reference range printed 7 0.07-4.91^)?
Answer: 1.5% and 1.9%

Question: What about the PDW [2, 4] of the same compound?
Answer: 9.9 fL and 10.3 fL

Question: And the RDW-SD [2, 4]?
Answer: 29.1 fL and 29.6 fL

Question: What about the RET ([2]; complete blood count, animals 1, 2, reference range 2.56-4.56) of the same compound?
Answer: 4.04% and 5.29%

Question: What about the MPV ([2]; complete blood count, animals 1, 2, reference range 4.6-5.9) of the same compound?
Answer: 7 fL and 7.3 fL

Question: What about the RBC ([2]; complete blood count, animals 1, 2, reference range 6.93-12.24) of the same compound?
Answer: 10.18 M/uL and 9.5 M/uL

Question: What about the HGB ([2]; complete blood count, animals 1, 2, reference range 12.4-20.5) of the same compound?
Answer: 15.3 g/dL and 14.4 g/dL

Question: What about the MCH ([2]; complete blood count, animals 1, 2, reference range 13.0-17.6) of the same compound?
Answer: 15 pg and 15.2 pg

Question: And the RDW-CV ([2]; complete blood count, animals 1, 2, reference range 16.9-23.5)?
Answer: 25.4% and 24%

Question: What about the MCHC ([2]; complete blood count, animals 1, 2, reference range 23.3-33.1) of the same compound?
Answer: 32.3 g/dL and 31.9 g/dL

Question: What about the HCT ([2]; complete blood count, animals 1, 2, reference range 42.1-68.3) of the same compound?
Answer: 47.3% and 45.2%

Question: What about the MCV ([2]; complete blood count, animals 1, 2, reference range 50.7-64.4) of the same compound?
Answer: 46.5 fL and 47.6 fL

Question: And the “RET#” value ([2]; complete blood count, animals 1, 2, reference range 294-444)?
Answer: 411.3 K/uL and 502.6 K/uL

Question: What about the PLT ([2]; complete blood count, animals 1, 2, reference range 420-1698) of the same compound?
Answer: 1137 K/uL and 1026 K/uL

Question: What about the BAND ([2]; manual differential, animal 1) of the same compound?
Answer: 1%

Question: What about the EO ([2]; manual differential, animals 1, 2, reference range 0.07-4.91) of the same compound?
Answer: 2% and 1%

Question: And the NEUT [2, 5]?
Answer: 45% and 57%

Question: What about the LYMPH [2, 5] of the same compound?
Answer: 52% and 42%

Question: And the “baseline expression of inflammation-related genes (Ccl5, Cxcl10, Isg15)” value (B16F10 cells)?
Answer: significant reductions

Question: And the “expression of STING-dependent genes” value (B16F10 cells)?
Answer: significantly reduced

Question: And the “gene set enrichment analysis (GSEA) pathways” value (B16F10 cells)?
Answer: downregulation of pathways related to inflammation and of genes involved in the epithelial-to-mesenchymal transition (EMT)
